In PMC8456958, “Selective Bacterial Targeting and Infection‐Triggered Release of Antibiotic Colistin Conjugates” (Angewandte Chemie (International Ed. in English), 2021):
Positions of bridges follow the written chain, without caps; N, C: chain ends. Non-standard residues stand in square brackets, D forms with d. Residues, ends and D or L forms follow the SMILES beside them. *: point of attachment. Heptanoyl(6-Me) = CC(C)CCCCC(=O)*; Dab = NCC[C@H](N)C(=O)O

Molecular target: T1, neutrophil elastase (NE) (Homo sapiens, UniProt P08246)
T1 construct: Activity of NE after co‐cultivation of PMN with E. coli K12 in presence of 1 or 6; endogenous in cells; host or cells: primary human PMN isolated from fresh venous whole blood of healthy volunteers, co-cultivated with E. coli K12
T1 sequence (P08246 30-267): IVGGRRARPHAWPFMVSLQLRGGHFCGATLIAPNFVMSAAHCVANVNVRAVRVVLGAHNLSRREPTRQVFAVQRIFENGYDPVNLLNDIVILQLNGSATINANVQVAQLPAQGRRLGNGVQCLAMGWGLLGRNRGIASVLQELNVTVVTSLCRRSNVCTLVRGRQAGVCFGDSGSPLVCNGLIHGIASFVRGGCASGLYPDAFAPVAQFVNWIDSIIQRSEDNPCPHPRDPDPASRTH
Assay: Activity of NE in co-cultivation of PMN with E. coli K12 (MeOSuc-AAPV-pNA cleavage)
Format: cell-based
Conditions: 10 μM; PMN co-cultivated with E. coli K12, 1 h, 37 °C, RPMI 1640/HEPES-NaCl 1:1; mean of two experiments
Procedure: Figure 5 Cellular proof of concept for triggered antibiotic release from 6. a) Release of neutrophil elastase (NE) from neutrophil granulocytes. PMN were isolated and suspended in RPMI 1640. For activation, 0.1 μM fMLP was added. The samples were incubated for 1 h at 37 °C, centrifuged to remove cells, and the NE concentration was determined in the supernatant by ELISA. Values normalized to 1×10^6 cells mL^−1. Data are presented as the mean of 4 separate experiments. *p<0.03 compared to unactivated. b) Activity of NE after co‐cultivation of PMN with E. coli K12 in presence of 1 or 6. […] After 1 h colistin concentrations were determined by HPLC–MS. […]
Calculation of results: All samples and standards were measured in duplicate. The standard curve was constructed by plotting the mean absorbance for each standard on the y-axis against the concentration on the x-axis. A linear regression analysis was performed and the results for the samples were calculated. […]
on. […] The plate was incubated in a microplate reader for 60 min at 37 °C with shaking for 5 sec at 50 rpm once per minute.
Every minute readings were taken at 410 nm. For the calculation of the cleavage velocity, the difference in absorbance after an initialization phase at 15 min and a further incubation time of 30 min was used and related to total cleavage of the substrate. The blank was subtracted from the readings. […]

CC(C)CCCCC(=O)N[C@@H](CCN)C(=O)N[C@H](C(=O)N[C@@H](CCN)C(=O)N[C@H]1CCNC(=O)[C@H]([C@@H](C)O)NC(=O)[C@H](CCN)NC(=O)[C@H](CCN)NC(=O)[C@H](CC(C)C)NC(=O)[C@@H](CC(C)C)NC(=O)[C@H](CCN)NC1=O)[C@@H](C)O [Compound 1, colistin B, reference compound] ({Heptanoyl(6-Me)}-[Dab]T[Dab][Dab][Dab][dL]L[Dab][Dab]T; lactam 4-C)
enhancing effect on the activity of NE: 2.3–2.5 fold
